Laboratory results: PubChem BioAssay AID1259411 (Chemical Carcinogenesis Research Information System (CCRIS), 2018)
The source made the active and inactive calls. No rule for the calls is given here.

System: rodent carcinogenicity bioassays, tumor incidence
Experiment: CCRIS carcinogenicity studies
Source text: The CCRIS database contains chemical records with carcinogenicity, mutagenicity, tumor promotion, and tumor inhibition test results. It was developed by the National Cancer Institute (NCI). Data are derived from studies cited in primary journals, current awareness tools, NCI reports, and other sources. Test results have been reviewed by experts in carcinogenesis and mutagenesis.
CCRIS provides historical information from the years 1985 - 2011. It is no longer updated.
This is an archive assay for CCRIS carcinogenicity studies.

OC[P+](CO)(CO)CO
carcinogen call (Species: MOUSE, Strain/Sex: B6C3F1/FEMALE, Route: GAVAGE, Dose: 0, 5, 10 MG/KG IN DISTILLED WATER 5 D/WK FOR 103 WK, Dose: 0, 5, 10 MG/KG IN DISTILLED WATER 5 D/WK FOR 103 WK): inactive; negative
carcinogen call (Species: MOUSE, Strain/Sex: B6C3F1/FEMALE, Route: GAVAGE, Dose: 0, 15, 30 MG/KG IN DISTILLED WATER 5 D/WK FOR 103 WK, Dose: 0, 15, 30 MG/KG IN DISTILLED WATER 5 D/WK FOR 103 WK): inactive; negative
carcinogen call (Species: MOUSE, Strain/Sex: B6C3F1/MALE, Route: GAVAGE, Dose: 0, 5, 10 MG/KG IN DISTILLED WATER 5 D/WK FOR 103 WK, Dose: 0, 5, 10 MG/KG IN DISTILLED WATER 5 D/WK FOR 103 WK): inactive; negative
carcinogen call (Species: MOUSE, Strain/Sex: B6C3F1/MALE, Route: GAVAGE, Dose: 0, 7.5, 15 MG/KG IN DISTILLED WATER 5 D/WK FOR 103 WK, Dose: 0, 7.5, 15 MG/KG IN DISTILLED WATER 5 D/WK FOR 103 WK): inactive; negative
carcinogen call (Species: RAT, Strain/Sex: F344/FEMALE, Route: GAVAGE, Dose: 0, 3.75, 7.5 MG/KG IN DISTILLED WATER 5 D/WK FOR 103 WK, Dose: 0, 3.75, 7.5 MG/KG IN DISTILLED WATER 5 D/WK FOR 103 WK): inactive; negative
carcinogen call (Species: RAT, Strain/Sex: F344/FEMALE, Route: GAVAGE, Dose: 0, 5, 10 MG/KG IN DISTILLED WATER 5 D/WK FOR 104 WK, Dose: 0, 5, 10 MG/KG IN DISTILLED WATER 5 D/WK FOR 104 WK): inactive; negative
carcinogen call (Species: RAT, Strain/Sex: F344/MALE, Route: GAVAGE, Dose: 0, 3.75, 7.5 MG/KG IN DISTILLED WATER 5 D/WK FOR 103 WK, Dose: 0, 3.75, 7.5 MG/KG IN DISTILLED WATER 5 D/WK FOR 103 WK): inactive; negative
carcinogen call (Species: RAT, Strain/Sex: F344/MALE, Route: GAVAGE, Dose: 0, 5, 10 MG/KG IN DISTILLED WATER 5 D/WK FOR 104 WK, Dose: 0, 5, 10 MG/KG IN DISTILLED WATER 5 D/WK FOR 104 WK): inactive; negative

[Cl][Hg][Cl]
carcinogen call (Species: MOUSE, Strain/Sex: B6C3F1/FEMALE, Route: GAVAGE, Dose: 0, 5, 10 MG/KG IN DEIONIZED WATER 5 D/WK FOR 103-104 WK (STUDY DURATION: 104 WK), Dose: 0, 5, 10 MG/KG IN DEIONIZED WATER 5 D/WK FOR 103-104 WK (STUDY DURATION: 104 WK)): inactive; negative
carcinogen call (Species: MOUSE, Strain/Sex: B6C3F1/MALE, Route: GAVAGE, Dose: 0, 5, 10 MG/KG IN DEIONIZED WATER 5 D/WK FOR 103-104 WK (STUDY DURATION: 104 WK), Dose: 0, 5, 10 MG/KG IN DEIONIZED WATER 5 D/WK FOR 103-104 WK (STUDY DURATION: 104 WK), Tumor Site: Type of Lesion: KIDNEY (RENAL TUBLE): ADENOMA, ADENOCARCINOMA): equivocal
carcinogen call (Species: MOUSE, Strain/Sex: SWISS/FEMALE, Route: ORAL, Dose: 0, 5 PPM (HG) IN DRINKING WATER FOR DURATION OF STUDY (STUDY DURATION: LIFE SPAN)): inactive; negative
carcinogen call (Species: MOUSE, Strain/Sex: SWISS/MALE, Route: ORAL, Dose: 0, 5 PPM (HG) IN DRINKING WATER FOR DURATION OF STUDY (STUDY DURATION: LIFE SPAN)): inactive; negative
carcinogen call (Species: RAT, Strain/Sex: F344/FEMALE, Route: GAVAGE, Dose: 0, 2.5, 5 MG/KG IN DEIONIZED WATER 5 D/WK FOR 103-104 WK (STUDY DURATION: 104 WK), Dose: 0, 2.5, 5 MG/KG IN DEIONIZED WATER 5 D/WK FOR 103-104 WK (STUDY DURATION: 104 WK), Tumor Site: Type of Lesion: FORESTOMACH: SQUAMOUS CELL PAPILLOMA): equivocal
carcinogen call (Species: RAT, Strain/Sex: F344/MALE, Route: GAVAGE, Dose: 0, 2.5, 5 MG/KG IN DEIONIZED WATER 5 D/WK FOR 103-104 WK (STUDY DURATION: 104 WK), Dose: 0, 2.5, 5 MG/KG IN DEIONIZED WATER 5 D/WK FOR 103-104 WK (STUDY DURATION: 104 WK), Tumor Site: Type of Lesion: THYROID GLAND: FOLLICULAR CELL CARCINOMA, FOLLICULAR CELL CARCINOMA OR ADENOMA, FORESTOMACH: SQUAMOUS CELL PAPILLOMA): active; positive

C=[N+]=[N-]
carcinogen call (Species: MOUSE, Route: INHALATION, DERMAL, Tumor Site: Type of Lesion: LUNG): active; positive
carcinogen call (Species: RAT, Route: INHALATION, Tumor Site: Type of Lesion: LUNG): active; positive
